The test system of test [1] is cell-surface Mac-1 adhesion to immobilized fibrinogen (HL-60 cells). Kind of test: Mac-1/Fibrinogen cell-based screening assay. Particulars: Homo sapiens, HL-60, HL-60 cells; read-out: Mac-1/Fgn Cell based Assay IC50. Further details: species or system human. As for the experimental part: Cellular Mac-1/Fibrinogen antagonist activity, defined as the ability to inhibit cell-surface Mac-1 adhesion to immobilized fibrinogen, was quantitated by a cell based assay. Human fibrinogen was coated onto 96 well microtiter plates (1 μg in 100 μL TBS) overnight at 4° C. The plates were then blocked with 150 μL of 10% polyvinyl pyrrolidone (PVP) in TBS for 1 h at 37° C. Plates were washed 3 times (150 μL each) with TBS. […] A ten-fold excess of volume of the same buffer was added and cells were centrifuged. The medium was decanted and cells were resuspended at a concentration of 2×10^6 cells/mL in RPMI/0.05% BSA/0.2 mM MnCl2. Stock solutions (10 mM in DMSO) of test compounds were diluted to 2.5 mM with DMSO. […] Each sample was further diluted 50-fold with RPMI/0.05% BSA/0.2 mM MnCl2. Equal volumes of labeled cells were then added to assay tubes containing diluted compounds. […] Cells were incubated for 10 min at 37° C. with gentle shaking, then dispensed (100 μL per well) onto fibrinogen coated plates and incubated for 30 min at 37° C./5% CO2. Unbound cells were gently washed with TBS two times.

The target in test [2] is T1, LFA-1 binding to immobilized ICAM-1 (Homo sapiens, UniProt P05107+P20701).
T1 construct: made in house; host or cells: transfected 293 cells (LFA-1)
Kind of test: LFA-1/ICAM-1 protein-protein assay (solid-phase ELISA). The settings on record: read-out: LFA-1/ICAM-1 Protein-Protein Assay IC50. How it is done:
(a) LFA-1/ICAM-1 screening test: LFA-1/ICAM-1 antagonist activity, defined as the ability of compounds of the invention to block LFA-1 binding to immobilized ICAM-1, was quantitated using a solid-phase ELISA.
(§1) Typically, fusion protein consisting of the entire extracellular domain of human ICAM-1 and the Fc domain of human IgG (5dICAM-Ig) was coated onto 96-well microtiter plates (0.15 μg in 100 μL PBS) overnight at 4° C. The plates were then blocked with 150 μL of 1% BSA/1 mM MnCl2/0.14 M NaCl/20 mM HEPES, pH 7.2 for 1 h at 37° C. and washed 3 times (150 μL each) with Wash Buffer (50 mM Tris, pH 7.4/100 mM NaCl/1 mM MnCl2/0.05% Tween 20). Stock solutions (100 μM in 100% DMSO) of test compounds were diluted 50 fold with 150 μL of Binding Buffer (0.05% BSA/0.05% Tween 20/1 mM MnCl2/0.14 M NaCl/20 mM HEPES, pH 7.2) plus 10% DMSO. […] Fifty μL per well of each dilution was added to the ICAM-1 coated plates, followed by 50 μL per well of membrane-bound LFA-1 (280 ng/mL in Binding Buffer) derived from transfected 293 cells. The plates were shaken vigorously for 1 min (room temperature) and gently for 2 h (37° C.). After incubation, the plates were washed 3 times (150 μL each) with Wash Buffer. Mouse anti-human integrin β2 monoclonal antibody was added (100 μL/well, 1 μg/mL in Binding Buffer) and allowed to incubate for 1 h (37° C.) with gentle agitation. The plates were then washed 3 times with Wash Buffer. HRP-conjugated goat anti-mouse IgG (100 μL/well, 1:1500 dilution in Binding Buffer) was added to each well, followed by incubation for 1 h (37° C.), and concluded by three washes (150 μL each) with Wash Buffer. TMB solution (100 μL per well) was added for color development (10 min). The reaction was stopped by the addition of 100 μL of 1 M H3PO4 to each well. The plates were then read at 450 nm. The inhibitory activities of test compounds were determined by the IC50s.
as §1, with “LFA-1/ICAM-1 antagonist activity, defined as the ability to block LFA-1 binding to immobilized ICAM-1, was quantitated using a solid-phase ELISA. Typically,” for “Typically,”, “(0.05 %” for “(0.05%”, “nm.” for “nm. The inhibitory activities of test compounds were determined by the IC50s.”

For test [3], the target named is T2, ICAM-1 binding to immobilized Mac-1 (Homo sapiens, UniProt P05107+P11215).
T2 construct: made in house; host or cells: transfected 293 cells (Mac-1)
Kind of test: Mac-1/ICAM-1 screening assay (solid-phase ELISA). The settings on record: read-out: Mac-1/ICAM-1 Protein-Protein Assay IC50. How it is done:
(b) Mac-1/ICAM-1 screening test: Mac-1/ICAM-1 antagonist activity, defined as the ability to compete with ICAM-1 binding to immobilized Mac-1, was quantitated by a solid-phase ELISA.
(§2) Membrane-bound Mac-1 derived from transfected 293 cells was coated onto 96-well microtiter plates (50 μL/well, 3 μg/mL Mac-1 in 20 mM Hepes, pH 7.2/0.14 M NaCl/1 mM MnCl2) overnight at 4° C. The plates were blocked with 100 μL/well of 0.5% BSA in 20 mM Hepes, pH 7.2/0.14 M NaCl/1 mM MnCl2 at 37° C. for 1 h and washed 3 times (120 μL each) with Binding Buffer (20 mM Hepes, pH 7.2/0.14 M NaCl/1 mM MnCl2/0.05% Tween 20). Test compounds were dissolved in 100% DMSO and diluted 1:50 in Binding Buffer plus 10% DMSO. A series of 1:4 dilutions were performed for each compound (concentration range, 0.12 nM-20 μM). Each dilution (25 μL/well) was added to the plates, followed by 25 μL/well of 5 dICAM-Ig (40 μg/mL in Binding Buffer). The plates were shaken vigorously for 1 min (room temperature), followed by gentle agitation for 2 h (37° C.), and washed with Binding Buffer (3 times, 120 μL each). HRP-conjugated goat anti-human IgG(Fc-specific) antibody (0.125 μg/mL in Binding Buffer plus 0.05% BSA) was added to each well (50 μL/well), followed by incubation for 1 h at 37° C. The plates were then washed 3 times with Binding Buffer (120 μL each). TMB solution (100 μL/well) was added to each well for color development for 10 min. The reaction was stopped with 1 M H3PO4 (100 μL/well) and the plates were read at 450 nm. The inhibitory activities of test compounds were determined by the IC50s.
as §2, with “Mac-1/ICAM-1 antagonist activity, defined as the ability to compete with ICAM-1 binding to immobilized Mac-1, was quantitated by a solid-phase ELISA. Membrane-bound” for “Membrane-bound”, “5dICAM-Ig” for “5 dICAM-Ig”, “nm.” for “nm. The inhibitory activities of test compounds were determined by the IC50s.”

Among the data in US20040006236A1, “Diaminopropionic acid derivatives” (priority 1999, published 2004) are IC50 values, retold here.

T1 sequence (P20701 26-1170): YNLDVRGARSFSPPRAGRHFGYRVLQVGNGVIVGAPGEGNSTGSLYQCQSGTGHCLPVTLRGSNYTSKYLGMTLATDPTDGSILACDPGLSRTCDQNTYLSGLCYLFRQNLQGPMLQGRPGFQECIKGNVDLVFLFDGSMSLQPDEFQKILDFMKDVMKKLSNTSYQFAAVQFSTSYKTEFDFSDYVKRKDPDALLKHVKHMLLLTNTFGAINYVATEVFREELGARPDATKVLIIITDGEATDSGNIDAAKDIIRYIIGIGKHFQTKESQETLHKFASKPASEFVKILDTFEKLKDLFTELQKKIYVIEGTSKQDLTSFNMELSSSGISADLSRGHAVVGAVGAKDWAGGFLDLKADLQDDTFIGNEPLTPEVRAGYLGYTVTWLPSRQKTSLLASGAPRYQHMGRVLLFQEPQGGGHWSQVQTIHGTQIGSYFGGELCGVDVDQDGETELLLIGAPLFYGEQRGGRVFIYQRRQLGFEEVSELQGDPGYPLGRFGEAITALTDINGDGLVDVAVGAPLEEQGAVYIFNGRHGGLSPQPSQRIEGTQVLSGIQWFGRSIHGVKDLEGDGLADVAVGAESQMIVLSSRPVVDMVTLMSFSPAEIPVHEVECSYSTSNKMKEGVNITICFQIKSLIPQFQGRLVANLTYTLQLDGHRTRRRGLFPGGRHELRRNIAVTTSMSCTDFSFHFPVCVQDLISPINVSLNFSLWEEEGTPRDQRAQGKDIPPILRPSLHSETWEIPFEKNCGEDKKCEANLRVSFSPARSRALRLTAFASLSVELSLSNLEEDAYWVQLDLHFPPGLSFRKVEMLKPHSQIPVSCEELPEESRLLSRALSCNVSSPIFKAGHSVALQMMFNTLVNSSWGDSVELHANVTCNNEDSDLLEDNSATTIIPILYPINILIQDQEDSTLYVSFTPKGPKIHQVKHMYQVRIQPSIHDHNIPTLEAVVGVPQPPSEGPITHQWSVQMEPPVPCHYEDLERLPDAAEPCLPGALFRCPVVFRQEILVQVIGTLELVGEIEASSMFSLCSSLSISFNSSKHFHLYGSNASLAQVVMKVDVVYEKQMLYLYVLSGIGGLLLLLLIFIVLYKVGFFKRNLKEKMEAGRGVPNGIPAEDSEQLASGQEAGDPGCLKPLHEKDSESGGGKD
T1 sequence (P05107 23-769): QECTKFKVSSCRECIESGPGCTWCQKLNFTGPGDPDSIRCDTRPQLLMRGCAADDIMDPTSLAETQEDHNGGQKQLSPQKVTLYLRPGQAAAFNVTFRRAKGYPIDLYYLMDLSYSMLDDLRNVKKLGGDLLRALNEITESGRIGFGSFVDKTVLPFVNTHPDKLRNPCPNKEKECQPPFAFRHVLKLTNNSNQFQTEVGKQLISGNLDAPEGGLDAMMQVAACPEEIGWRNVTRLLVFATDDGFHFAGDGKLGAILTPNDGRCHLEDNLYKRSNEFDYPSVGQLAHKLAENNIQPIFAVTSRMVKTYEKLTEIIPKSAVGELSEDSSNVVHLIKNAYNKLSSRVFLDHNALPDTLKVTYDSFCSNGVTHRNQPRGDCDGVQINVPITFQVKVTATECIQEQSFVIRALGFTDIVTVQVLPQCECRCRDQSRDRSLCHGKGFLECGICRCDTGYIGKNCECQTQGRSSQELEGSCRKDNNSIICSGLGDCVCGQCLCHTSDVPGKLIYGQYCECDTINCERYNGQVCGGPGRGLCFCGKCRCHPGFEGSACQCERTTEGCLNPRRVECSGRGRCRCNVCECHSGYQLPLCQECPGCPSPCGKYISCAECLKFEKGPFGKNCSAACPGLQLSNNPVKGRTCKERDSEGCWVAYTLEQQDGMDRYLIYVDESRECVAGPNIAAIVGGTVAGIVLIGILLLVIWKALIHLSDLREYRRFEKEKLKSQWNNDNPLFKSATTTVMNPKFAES
T2 sequence (P05107 23-769, other chains not shown): as the sequence (P05107 23-769) above

Regarding `O=C(NCc1cccc(O)c1)c1ccc(C(=O)N[C@@H](CNC(=O)c2cc([N+](=O)[O-])[nH]n2)C(=O)O)c(Cl)c1` [Example 152], the IC50 in test [1] stood at 1220 nM.

Regarding `O=C(NCc1cccc(O)c1)c1ccc(C(=O)N[C@@H](CNC(=O)c2nccnc2C(=O)Nc2ccc(Cl)cn2)C(=O)O)c(Cl)c1` [Example 171], the IC50 turned out to be 1 nM in test [2] and 136 nM in test [3]. The like results for `O=C(NCc1cccc(O)c1)c1ccc(C(=O)N[C@@H](CNC(=O)c2c[nH]c(=O)[nH]c2=O)C(=O)O)c(Cl)c1` [Example 172] were, in that order, 7 nM and 538 nM. Take `O=C(NCc1cccc(O)c1)c1ccc(C(=O)N[C@@H](CNC(=O)c2cc(=O)[nH]c(=O)[nH]2)C(=O)O)c(Cl)c1` [Example 173]: the IC50 came out at 0.6 nM in test [2] and 36 nM in test [3]. As to `O=C(NCc1cccc(O)c1)c1ccc(C(=O)N[C@@H](CNC(=O)c2cc3ccccc3o2)C(=O)O)c(Cl)c1` [Example 174], the IC50 in test [2] worked out at 3.4 nM; in test [3] it was 91 nM. Regarding `O=C(NCc1cccc(O)c1)c1ccc(C(=O)N[C@@H](CNC(=O)c2ccc3[nH]cnc3c2)C(=O)O)c(Cl)c1` [Example 176], the IC50 in test [2] is 1.2 nM; in test [3] it was 54 nM. For the molecule `O=C(NCc1cccc(O)c1)c1ccc(C(=O)N[C@@H](CNC(=O)c2nccc3ccccc23)C(=O)O)c(Cl)c1` [Example 180], the figures for the IC50 in test [2] and in test [3] were 0.6 nM and 48 nM, respectively. With `O=C(NCc1cccc(O)c1)c1ccc(C(=O)N[C@@H](CNC(=O)c2ccc3ccccc3n2)C(=O)O)c(Cl)c1` [Example 181], the figures for the IC50 in test [2] and in test [3] were 12 nM and 176 nM, respectively. For `O=C(NCc1cccc(O)c1)c1ccc(C(=O)N[C@@H](CNC(=O)c2ccnc3ccccc23)C(=O)O)c(Cl)c1` [Example 184] the same measures were 2.5 nM and 91 nM. Turning to `O=C(NCc1cccc(O)c1)c1ccc(C(=O)N[C@@H](CNC(=O)c2cnnc3ccccc23)C(=O)O)c(Cl)c1` [Example 185], the IC50 turned out to be 1.3 nM in test [2] and 187 nM in test [3]. On to `O=C(NCc1cccc(O)c1)c1ccc(C(=O)N[C@@H](CNC(=O)c2nc3ccccc3nc2O)C(=O)O)c(Cl)c1` [Example 186], for which the IC50 in test [2] was determined as 1.6 nM; in test [3], 167 nM. For `O=C(NCc1cccc(O)c1)c1ccc(C(=O)N[C@@H](CNC(=O)c2cc3ccccc3oc2=O)C(=O)O)c(Cl)c1` [Example 188], the values for the IC50 in test [2] and in test [3] were 3.4 nM and 146 nM, respectively. Consider `O=C(NCc1cccc(O)c1)c1ccc(C(=O)N[C@@H](CNC(=O)c2c3ccccc3cc3ccccc23)C(=O)O)c(Cl)c1` [Example 189], for which the figures for the IC50 in test [2] and in test [3] were 18 nM and 1050 nM, respectively. In the case of `COc1ccc2nc3ccc(C(=O)NC[C@H](NC(=O)c4ccc(C(=O)NCc5cccc(O)c5)cc4Cl)C(=O)O)cn3c(=O)c2c1` [Example 191], the IC50 in test [2] is 2.2 nM; in test [3] it was 130 nM. In the case of `O=C(NC[C@H](NC(=O)c1c(F)cccc1Cl)C(=O)O)c1ccccc1` [Example 220], the IC50 was found to be 14 nM in test [2] and 304 nM in test [3]. The like results for `O=C(COc1ccccc1)c1ccc(C(=O)N[C@@H](CNC(=O)c2cccs2)C(=O)O)c(Cl)c1` [Example 376, N-[2-chloro-4-(phenoxyacetyl)benzoyl]-3-(thiophene-2-carbonyl)amino-L-alanine] were, in that order, 37 nM and 152 nM.
